US12447153B2, “HER2 mutation inhibitors” (Array BioPharma Inc., priority 2021, dated 2025)

How the values were obtained:
MDR1 (P-gp) = MDR1 (P-gp) (Homo sapiens (Human), UniProt P08183); assay: in vitro; conditions: pig, LLC-PK1
EGFR wild type (EGFR WT) = EGFR wild type (EGFR WT) (Homo sapiens (Human), UniProt P00533); assay: Cellular Phosphorylation Assay, Assay 5 (EGF-stimulated EGFR phosphorylation, NIH 3T3 cells); format: cell-based
ErbB2 WT = ErbB2 WT (Homo sapiens (Human), UniProt P04626); assay: ErbB Enzyme Assay (HTRF KinEASE-TK), Assay 2; format: biochemical
[1] = target: ErbB2 with Exon 20 YVMA insertion (HER2-YVMA) (Homo sapiens (Human), UniProt P04626, INS775YVMA); assay: Cellular Phosphorylation Assay, Assay 4 (constitutive ErbB2 phosphorylation, NIH 3T3 cells); format: cell-based
BCRP = BCRP (Homo sapiens (Human), UniProt Q9UNQ0); assay: BCRP MDCKII efflux assay (Assay 7); format: in vitro ADME; conditions: dog; efflux ratio Papp(B-A)/Papp(A-B), BCRP MDCKII cells; read-out: Assay 7 Pe Ratio
Procedure: Assay conditions included with and without the BCRP-specific inhibitor, KO143, at a concentration of 0.3 μM to ascertain the contribution of BCRP to the efflux value of the test compound.
Final organic concentration in the assay was 1%.

EGFR = EGFR (Homo sapiens (Human), UniProt P00533); assay: ErbB Enzyme Assay (HTRF KinEASE-TK), Assay 3; format: biochemical
[2] = EGF-stimulated EGFR WT phosphorylation
[3] = cellular EGFR WT phosphorylation, EGF-stimulated
[4] = cellular ErbB2 YVMA phosphorylation

BCRP, sequence (Q9UNQ0 whole entry): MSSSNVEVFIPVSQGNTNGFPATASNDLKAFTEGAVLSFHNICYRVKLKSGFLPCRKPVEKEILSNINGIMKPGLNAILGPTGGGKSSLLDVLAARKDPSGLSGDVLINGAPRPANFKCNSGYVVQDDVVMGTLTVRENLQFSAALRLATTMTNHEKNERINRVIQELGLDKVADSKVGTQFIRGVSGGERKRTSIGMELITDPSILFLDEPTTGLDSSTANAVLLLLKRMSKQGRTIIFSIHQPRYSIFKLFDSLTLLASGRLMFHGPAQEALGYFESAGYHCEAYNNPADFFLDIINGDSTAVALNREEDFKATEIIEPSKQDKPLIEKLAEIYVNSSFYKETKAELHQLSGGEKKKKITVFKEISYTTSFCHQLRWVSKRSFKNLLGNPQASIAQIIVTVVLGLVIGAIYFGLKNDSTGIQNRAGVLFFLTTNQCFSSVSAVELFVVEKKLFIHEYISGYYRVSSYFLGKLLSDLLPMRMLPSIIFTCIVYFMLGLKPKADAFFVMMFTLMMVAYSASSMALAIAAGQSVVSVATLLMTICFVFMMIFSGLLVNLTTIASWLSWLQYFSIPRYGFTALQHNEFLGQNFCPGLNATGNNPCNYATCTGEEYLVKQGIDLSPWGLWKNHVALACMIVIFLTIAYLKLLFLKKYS
MDR1 (P-gp), sequence (P08183 whole entry): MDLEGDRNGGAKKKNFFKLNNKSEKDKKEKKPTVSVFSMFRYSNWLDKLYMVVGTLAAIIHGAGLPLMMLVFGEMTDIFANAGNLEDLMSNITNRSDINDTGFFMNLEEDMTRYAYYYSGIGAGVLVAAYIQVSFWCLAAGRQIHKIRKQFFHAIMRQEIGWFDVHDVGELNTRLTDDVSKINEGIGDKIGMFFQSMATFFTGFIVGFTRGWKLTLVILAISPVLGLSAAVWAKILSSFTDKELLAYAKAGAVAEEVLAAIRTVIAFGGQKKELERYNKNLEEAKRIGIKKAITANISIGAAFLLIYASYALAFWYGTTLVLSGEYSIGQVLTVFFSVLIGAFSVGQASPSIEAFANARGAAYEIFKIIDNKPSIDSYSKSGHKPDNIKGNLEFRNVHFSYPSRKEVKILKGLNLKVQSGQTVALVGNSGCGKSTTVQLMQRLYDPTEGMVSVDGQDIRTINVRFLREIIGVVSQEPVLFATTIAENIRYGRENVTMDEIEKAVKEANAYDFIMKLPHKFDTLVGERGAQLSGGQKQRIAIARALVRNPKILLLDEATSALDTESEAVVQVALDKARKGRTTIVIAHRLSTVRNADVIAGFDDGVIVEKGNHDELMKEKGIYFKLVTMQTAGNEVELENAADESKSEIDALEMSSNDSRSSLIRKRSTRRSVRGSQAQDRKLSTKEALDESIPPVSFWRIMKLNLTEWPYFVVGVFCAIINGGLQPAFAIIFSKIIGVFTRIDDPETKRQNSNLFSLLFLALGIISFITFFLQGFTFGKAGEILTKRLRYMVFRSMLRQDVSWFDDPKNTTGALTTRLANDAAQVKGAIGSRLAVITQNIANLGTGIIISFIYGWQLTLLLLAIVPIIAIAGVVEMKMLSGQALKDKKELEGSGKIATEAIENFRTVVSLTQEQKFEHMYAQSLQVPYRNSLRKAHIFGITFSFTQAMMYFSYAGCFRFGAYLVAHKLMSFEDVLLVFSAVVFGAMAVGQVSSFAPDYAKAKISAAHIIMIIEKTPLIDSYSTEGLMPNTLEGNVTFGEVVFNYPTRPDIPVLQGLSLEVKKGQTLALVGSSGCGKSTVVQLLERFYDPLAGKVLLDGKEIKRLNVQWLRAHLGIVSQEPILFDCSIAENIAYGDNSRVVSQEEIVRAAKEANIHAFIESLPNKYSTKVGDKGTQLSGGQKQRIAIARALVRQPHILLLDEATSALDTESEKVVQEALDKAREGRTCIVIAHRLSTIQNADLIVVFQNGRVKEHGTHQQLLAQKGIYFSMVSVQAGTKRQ
ErbB2 with Exon 20 YVMA insertion (HER2-YVMA), sequence (P04626 other isoform, or with tags, fused parts or gaps ins YVMA behind 775): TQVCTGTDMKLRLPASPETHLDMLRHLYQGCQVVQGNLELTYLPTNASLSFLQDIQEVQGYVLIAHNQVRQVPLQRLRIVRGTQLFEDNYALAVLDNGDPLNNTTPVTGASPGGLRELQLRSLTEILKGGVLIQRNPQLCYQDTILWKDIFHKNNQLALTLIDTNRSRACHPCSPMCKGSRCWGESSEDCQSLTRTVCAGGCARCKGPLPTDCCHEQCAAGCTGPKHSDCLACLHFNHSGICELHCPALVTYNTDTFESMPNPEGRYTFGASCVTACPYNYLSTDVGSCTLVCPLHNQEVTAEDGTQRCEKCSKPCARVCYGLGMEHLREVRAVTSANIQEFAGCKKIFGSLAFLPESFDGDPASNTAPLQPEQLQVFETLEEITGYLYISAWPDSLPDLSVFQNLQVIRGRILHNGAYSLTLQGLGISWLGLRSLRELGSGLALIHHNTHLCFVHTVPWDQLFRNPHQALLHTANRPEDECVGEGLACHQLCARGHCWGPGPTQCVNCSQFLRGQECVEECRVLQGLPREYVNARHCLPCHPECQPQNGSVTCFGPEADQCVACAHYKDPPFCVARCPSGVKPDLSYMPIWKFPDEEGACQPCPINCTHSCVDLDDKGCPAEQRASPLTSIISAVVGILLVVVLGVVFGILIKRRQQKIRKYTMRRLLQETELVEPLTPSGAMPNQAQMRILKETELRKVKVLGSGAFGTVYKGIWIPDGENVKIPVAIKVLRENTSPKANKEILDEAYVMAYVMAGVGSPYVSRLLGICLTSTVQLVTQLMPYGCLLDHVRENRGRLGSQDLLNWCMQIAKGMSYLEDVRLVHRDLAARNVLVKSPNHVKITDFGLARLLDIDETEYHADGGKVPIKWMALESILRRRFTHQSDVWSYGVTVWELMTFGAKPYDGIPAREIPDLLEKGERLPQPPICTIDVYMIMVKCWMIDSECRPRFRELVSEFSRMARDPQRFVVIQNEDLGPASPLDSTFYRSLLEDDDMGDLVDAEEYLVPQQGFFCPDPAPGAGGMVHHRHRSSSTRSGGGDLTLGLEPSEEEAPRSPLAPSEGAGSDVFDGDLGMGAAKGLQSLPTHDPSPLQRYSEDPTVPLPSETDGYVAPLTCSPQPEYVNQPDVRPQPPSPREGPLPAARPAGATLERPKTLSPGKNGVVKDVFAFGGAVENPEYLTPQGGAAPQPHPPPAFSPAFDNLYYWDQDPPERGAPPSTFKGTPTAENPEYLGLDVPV
ErbB2 WT, sequence (P04626 23-1255): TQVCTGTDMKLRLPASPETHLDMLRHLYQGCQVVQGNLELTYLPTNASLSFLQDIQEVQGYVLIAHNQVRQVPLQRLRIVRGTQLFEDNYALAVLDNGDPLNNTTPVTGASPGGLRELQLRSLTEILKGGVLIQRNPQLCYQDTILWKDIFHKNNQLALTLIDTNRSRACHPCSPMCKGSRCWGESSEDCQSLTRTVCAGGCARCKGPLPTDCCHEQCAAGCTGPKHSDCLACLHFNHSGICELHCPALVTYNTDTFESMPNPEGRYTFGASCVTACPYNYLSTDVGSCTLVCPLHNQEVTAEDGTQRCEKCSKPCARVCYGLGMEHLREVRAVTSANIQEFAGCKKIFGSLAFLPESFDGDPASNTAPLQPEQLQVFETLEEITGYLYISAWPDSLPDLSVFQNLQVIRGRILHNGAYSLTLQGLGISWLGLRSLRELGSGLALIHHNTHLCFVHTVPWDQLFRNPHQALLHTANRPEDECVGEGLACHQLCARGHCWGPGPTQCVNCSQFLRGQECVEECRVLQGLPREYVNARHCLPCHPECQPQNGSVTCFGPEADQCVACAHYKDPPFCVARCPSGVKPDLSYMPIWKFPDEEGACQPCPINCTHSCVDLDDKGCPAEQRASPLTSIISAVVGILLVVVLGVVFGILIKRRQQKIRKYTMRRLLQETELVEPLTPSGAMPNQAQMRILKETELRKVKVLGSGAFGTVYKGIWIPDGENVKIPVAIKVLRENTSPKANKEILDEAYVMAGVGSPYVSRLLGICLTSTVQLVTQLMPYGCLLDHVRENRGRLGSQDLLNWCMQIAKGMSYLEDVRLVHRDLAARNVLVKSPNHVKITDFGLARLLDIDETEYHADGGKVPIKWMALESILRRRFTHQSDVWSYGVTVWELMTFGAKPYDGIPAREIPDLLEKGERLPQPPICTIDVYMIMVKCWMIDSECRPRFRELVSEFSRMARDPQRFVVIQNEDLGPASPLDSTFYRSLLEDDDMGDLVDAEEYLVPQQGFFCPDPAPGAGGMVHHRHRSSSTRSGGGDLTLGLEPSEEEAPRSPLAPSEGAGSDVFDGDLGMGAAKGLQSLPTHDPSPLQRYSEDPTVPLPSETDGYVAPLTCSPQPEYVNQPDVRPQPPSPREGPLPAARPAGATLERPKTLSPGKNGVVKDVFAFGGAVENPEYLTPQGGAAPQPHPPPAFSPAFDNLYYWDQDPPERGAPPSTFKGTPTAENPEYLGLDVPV

| Compound | efflux ratio at 2 h, 1 µM (MDR1 (P-gp)) | IC50 (EGFR wild type (EGFR WT); [2]) [µM] | IC50 (ErbB2 WT; ErbB2 WT enzyme) [µM] | IC50 ([1]; ErbB2 YVMA phosphorylation) [µM] | efflux ratio at 2 h, 1 µM (BCRP) | IC50 (EGFR; EGFR enzyme) [µM] | IC50 (EGFR wild type (EGFR WT); [3]) [µM] | IC50 (ErbB2 WT; ErbB2 WT enzyme assay) [µM] | IC50 [1, 4] [µM] | IC50 (EGFR; EGFR enzyme assay) [µM] |
| --- | --- | --- | --- | --- | --- | --- | --- | --- | --- | --- |
| C=CC(=O)N1C[C@H]2C[C@H](c3ccc4ncnc(Nc5ccc(Oc6ccn7ncnc7c6)c(Cl)c5F)c4n3)[C@@H]1C2 [Example 230, 1-((1 S,4S,6S)-6-(4-((4-([1,2,4]triazolo[1,5-a]pyridin-7-yloxy)-3-chloro-2-fluorophenyl)amino)pyrido[3,2-d]pyrimidin-6-yl)-2-azabicyclo[2.2.1]heptan-2-yl)prop-2-en-1-one] | 0.8 | 0.996 | 0.0136 | 0.0214 | 2.7 | 0.312 |  |  |  |  |
| C=CC(=O)N1CCN(c2ccc3ncnc(Nc4ccc(Oc5cnc6c(c5)ncn6C)c(Cl)c4F)c3n2)CC1(C)C [Example 239, 1-(4-(4-((3-chloro-2-fluoro-4-((3-methyl-3H-imidazo[4,5-b]pyridin-6-yl)oxy)phenyl)amino)pyrido[3,2-d]pyrimidin-6-yl)-2,2-dimethylpiperazin-1-yl)prop-2-en-1-one] | 1.8 | 2.25 | 0.0367 | 0.0243 | 5.2 | 0.955 |  |  |  |  |
| Cc1c(Oc2ccn3ncnc3c2)ccc(Nc2ncnc3ccc(N4CCN(C#N)C(C)(C)C4)nc23)c1F [Example 245, 4-(4-((4-([1,2,4]triazolo[1,5-a]pyridin-7-yloxy)-2-fluoro-3-methylphenyl)amino)pyrido[3,2-d]pyrimidin-6-yl)-2,2-dimethylpiperazine-1-carbonitrile] | 1.2 | ≥ 5 | 0.0831 | 0.177 | 4.2 | ≥ 10 |  |  |  |  |
| CC#CC(=O)N1CC2CCC(C1)N2c1ccc2ncnc(Nc3ccc(Oc4ccn5ncnc5c4)c(C)c3F)c2n1 [Example 246, 1-(8-(4-((4-([1,2,4]triazolo[1,5-a]pyridin-7-yloxy)-2-fluoro-3-methylphenyl)amino)pyrido[3,2-d]pyrimidin-6-yl)-3,8-diazabicyclo[3.2.1]octan-3-yl)but-2-yn-1-one] | 0.5 | 1.3 | 0.0348 | 0.0162 | 1.3 | 1.8 |  |  |  |  |
| C=CC(=O)N1CCN(c2ccc3ncnc(Nc4ccc(Oc5cnc6c(c5)ncn6C)c(C)c4F)c3n2)CC1(C)C [Example 247, 1-(4-(4-((2-fluoro-3-methyl-4-((3-methyl-3H-imidazo[4,5-b]pyridin-6-yl)oxy)phenyl)amino)pyrido[3,2-d]pyrimidin-6-yl)-2,2-dimethylpiperazin-1-yl)prop-2-en-1-one] | 0.8 | ≥ 5 | 0.0715 | 0.0089 | 1.9 | ≥ 10 |  |  |  |  |
| C=CC(=O)N1CCN(c2ccc3ncnc(Nc4ccc(Oc5cnc6c(c5)ncn6C)c(Cl)c4)c3n2)CC1(C)C [Example 249] | 1.4 | 2.05 | 0.0118 | 0.0087 | 5.9 | 1.33 |  |  |  |  |
| C=CC(=O)N1C[C@@H]2C[C@H]1CN(c1ccc3ncnc(Nc4ccc(Oc5ccn6ncnc6c5)c(C)c4F)c3n1)C2 [Example 251] | 1.5 |  |  |  | 4.8 |  | ≥ 5 | 0.494 | 0.0273 | ≥ 10 |
| C=CC(=O)N1CCN(c2ccc3ncnc(Nc4cc(C)c(Oc5ccc6c(c5)ncn6C)cc4F)c3n2)C[C@@H]1C1CC1 [Example 252] | 1 |  |  |  | 2.9 |  | ≥ 5 | 0.171 | 0.0211 | 4.58 |
| C=CC(=O)N1CCN(c2ccc3ncnc(Nc4cc(C)c(Oc5ccc6c(c5)ncn6C)cc4F)c3n2)C[C@H]1C(C)C [Example 254] | 1.3 |  |  |  | 2.4 |  | ≥ 5 | 0.0926 | 0.0232 | 5.34 |
| C=CC(=O)N1CCCN(c2ccc3ncnc(Nc4ccc(Oc5ccn6ncnc6c5)c(Cl)c4F)c3n2)CC1(C)C [Example 261] | 1.3 |  |  |  | 3.6 |  | 0.716 | 0.0134 | 0.0279 | ≥ 10 |
| C=CC(=O)N1CCN(c2ccc3ncnc(Nc4ccc(Oc5ccc6c(c5)ncn6C)c(Cl)c4F)c3n2)CC1(C)C [Example 262] | 1.7 |  |  |  | 4.6 |  | ≥ 5 | 0.0189 | 0.0324 | ≥ 10 |
| C=CC(=O)N1[C@H](C)CN(c2ccc3ncnc(Nc4cc(Cl)c(Oc5ccn6ncnc6c5)cc4F)c3n2)C[C@@H]1C [Example 265] | 1.2 |  |  |  | 3.4 |  | 4.04 | 0.0172 | 0.0339 | 7.76 |
| C=CC(=O)N1CCC(c2ccc3ncnc(Nc4ccc(Oc5ccn6ncnc6c5)c(C)c4F)c3n2)CC12CC2 (stereo not drawn) [Example 270] | 1.6 |  |  |  | 1.1 |  | 0.494 | 0.021 | 0.0201 | 0.942 |
| C=CC(=O)N1CCN(c2ccc3ncnc(Nc4cc(Cl)c(Oc5ccn6ncnc6c5)cc4F)c3n2)C[C@@H]1C1CC1 [Example 286] | 1 |  |  |  | 2 |  | ≥ 5 | 0.0148 | 0.0165 | ≥ 10 |
| C=CC(=O)N1CCN(c2ccc3ncnc(Nc4ccc(Oc5ccn6ncnc6c5)c(Cl)c4F)c3n2)C[C@@H]1C1CC1 [Example 287] | 1 |  |  |  | 1.7 |  | 1.96 | 0.0124 | 0.0098 | 1.1 |
| C=CC(=O)N1CCN(c2ccc3ncnc(Nc4cc(C)c(Oc5ccn6ncnc6c5)cc4F)c3n2)C[C@@H]1CC [Example 290] | 1.5 |  |  |  | 4.8 |  | ≥ 5 | 0.0536 | 0.0385 | 8.71 |
| C=CC(=O)N1CCN(c2ccc3ncnc(Nc4ccc(Oc5ccn6ncnc6c5)c(C)c4F)c3n2)C[C@H]1C(C)(C)C [Example 303] | 1.3 |  |  |  | 1.1 |  | 2.58 | 0.02 | 0.0183 | 5.07 |
| C=CC(=O)N1C[C@@H]2CC[C@H]1CN2c1ccc2ncnc(Nc3cc(C)c(Oc4ccn5ncnc5c4)cc3F)c2n1 [Example 319] | 4.8 |  |  |  | 3.6 |  | 0.264 | 0.0081 | 0.0057 | 0.192 |
| C=CC(=O)N1CCN(c2ccc3ncnc(Nc4cc(Cl)c(Oc5ccn6ncnc6c5)cc4F)c3n2)CC1(C)C [Example 326] | 1.5 |  |  |  | 2.1 |  | 0.961 | 0.0187 | 0.0197 | 2.86 |
| C=CC(=O)N1CC[C@@H]2C[C@H]1CN2c1ccc2ncnc(Nc3cc(C)c(Oc4ccn5ncnc5c4)cc3F)c2n1 [Example 332] | 1.2 |  |  |  | 3.2 |  | 0.341 | 0.0109 | 0.0059 | 0.196 |
| C=CC(=O)N1CC2CC(C1)N2c1ccc2ncnc(Nc3cc(C)c(Oc4ccc5c(c4)ncn5C)cc3F)c2n1 [Example 334] | 3.7 |  |  |  | 1.9 |  | 1.08 | 0.0556 | 0.0218 | 0.43 |
